Data as given in patent publication US20250263370A1 (Tay Therapeutics Limited, priority 2022, published 2025).
Where two headings read alike, the source gives them in different places.

Tested on: collagen-induced arthritis
Details: rat, in vivo
Procedure: Prior to be randomly placed in treatment groups, animals were weighed, and paw volume was measured. Once randomly assigned to treatment groups, on Day 0, animals in groups 2-9 were immunized by subcutaneous injection at the base of the tail.
The immunization comprised 100 μL of the CFA+Collagen emulsion (prepared according to the method in Experimental Method A). Animals in group one received no immunization. Seven days after the first injection, animals in groups 2-9 received a booster immunization comprising 200 μL of the IFA+Collagen emulsion (prepared according to the method in Experimental Method A).
Starting on Day 0, animals in group 1 and 2 were administered daily doses of the vehicle per os (P.O.) for 21 days. […] The twice daily doses for animals in groups 4-9 were 8 hours apart (e.g., the first dose at 8:00 AM and the second dose at 4:00 PM).
Body weight of all animals was recorded daily for the 21-day period. Blind clinical scores on all four limbs were conducted for all animals in the study. Animals were assessed prior to receiving their first dose of the compound or control, and scores for each limb were combined to a total daily score for each animal. Clinical score assessments were performed on Day 0, 6, 12, 13, 14, 15, 18, 19, and 21 (for a total of 9 daily scores).
Paw volume was recorded for each animal on Day 0, 6, 12, 13, 14, 15, 18, 19, and 21 (for a total of 9 measurements). To measure paw volume, animals were gently held with one hand while the hind paw was placed into a plethysmometer with the other hand. Lipid displacement by the paw was recorded and used to represent paw volume.
All data measured and recorded was analyzed using SPSS 16.0 software. Groups were compared using one-way ANOVA and significance was set at p<0.05.

C[C@@H]1C[C@H]2[C@@H]3CCC4=CC(=O)C=C[C@]4(C)[C@@]3(F)[C@@H](O)C[C@]2(C)[C@@]1(O)C(=O)CO [dexamethasone]
body weight over the course of the study (po): did not exhibit weight gains over the first 13 days of the study

CNC(=O)c1[nH]c(C(=O)NC2CCC2)cc1O[C@@H](C)c1ccccc1 (stereo in doubt) [Example 101, N^5-cyclobutyl-N^2-methyl-3-(1-phenylethoxy)-1H-pyrrole-2,5-dicarboxamide]
Clinical Observation (10 mg/kg): Diarrhea
Clinical Observation (30 mg/kg): Diarrhea
animals that gained weight by the end of the study (po, 3 mg/kg): 7/8
body weight over the course of the study (po, 3 mg/kg): weight gain over the first 13 days of the study, similar to animals in groups 2 and 4, followed by weight loss over the remaining days
diarrhea over the 21-day period (po, 3 mg/kg): did not have diarrhea
increase in body weight, day 21 compared to day 0 (po, 3 mg/kg): 1.7%
animals that either gained no weight or lost weight (po, 10 mg/kg): 5/8
animals that gained weight by the end of the study (po, 10 mg/kg): 3/8
animals that had diarrhea (for a single day) over the 21-day period (po, 10 mg/kg): Two different animals
body weight over the course of the study (po, 10 mg/kg): modest weight gains over the first 10-11 days of the study, followed by weight loss
body weight relative to CIA + vehicle (group 2) (po, 10 mg/kg): significantly decreased relative to group 2 on days 6-7 and 10-18 (p<0.01), and on days 9 and 19-21 (p<0.05)
weight change, day 21 compared to day 0 (po, 10 mg/kg): approximately 0.5%
animals that either lost weight or gained no weight (po, 30 mg/kg): 5/8
animals that gained weight by the end of the study (po, 30 mg/kg): 3/8
animals that had diarrhea over the 21-day period (po, 30 mg/kg): Four different animals
body weight over the course of the study (po, 30 mg/kg): modest weight gains over the first 10-11 days of the study, followed by weight loss
body weight relative to CIA + vehicle (group 2) (po, 30 mg/kg): significantly decreased relative to group 2 on days 6-7 and 9-18 (p<0.01), and on days 5 and 19-21 (p<0.05)
weight change, day 21 compared to day 0 (po, 30 mg/kg): approximately 0.5%

CNC(=O)c1cc(C(=O)NC2CC2)cn(Cc2ccccc2)c1=O [GSK620]
body weight over the course of the study (po): modest weight gains over the first 13 days of the study followed by weight loss
diarrhea over the 21-day period (po): did not have diarrhea
increase in body weight, day 21 compared to day 0 (po): 0.8%
